# In article PMC11044151, “Development of Half-Sandwich Ru, Os, Rh, and Ir Complexes Bearing the Pyridine-2-ylmethanimine Bidentate Ligand Derived from 7-Chloroquinazolin-4(3H)-one with Enhanced Antiproliferative Activity” (ACS Omega, 2024):
# Read-outs that look alike come from different tables or passages of the source.
# What was measured:
# [1] = system: HCT116; test: cells; details: for IC50: read-out: IC50 HCT116, exposure time 72 h, n = 3, 95% CI given; for activity factor IC50(1)/IC50(3a–4d), HCT116: vs corresponding amine (R)-1 or (S)-1, 72 h
# Excerpt: (§1) To assess the impact of conjugating half-sandwich complexes with amines 1 via an imine-pyridine ligand on biological activity, we examined the antiproliferative potential of (R)- and (S)-1 and organometallic conjugates 3a–d and 4a–d in selected human cancer cell lines: alveolar basal epithelial cell adenocarcinoma (A549), colorectal adenocarcinomas (Colo205 and SW620), colorectal carcinoma (HCT116), hepatocellular carcinoma (HepG2), and breast adenocarcinoma (MCF7). The choice of cell lines was dictated by results of previously published clinical trials on ispinesib.[49],[50]
# (§2) For this purpose, neutral red uptake assay was performed. 10^4 of cells were seeded per well of a 96-well plate and left overnight to allow cells to attach to the surface. Then, the cells were exposed to a desired concentration of tested compounds. Stock solutions were prepared in DMSO and were used immediately after preparation. The final concentration of DMSO was constant and nontoxic (0.1% v/v). After 70 h of culture, neutral red was added to the final concentration of 1 mM. After 2 h of incubation with the dye, the medium was aspirated and cells were washed with ice-cold PBS. The dye was released using 100 μL of the solubilizer (1% acetic acid in 50% ethanol) on an orbital shaker (10 min). The absorbance at 540 nm was measured using an EnVision multilabel plate reader (PerkinElmer). […] The IC90 and IC50 parameters were calculated using GraphPad Prism v9 software using the five-parameter nonlinear logistic regression model.
# [2] = Stability study in the presence of L-cysteine (UV-vis, HPLC-MS); format: physicochemical; details: 20 μM complex, 0.2 mM L-cysteine in water, 0.5 vol % DMSO, followed over 2 h
# Excerpt: (§3) For biological studies, compounds are commonly administered as dimethyl sulfoxide (DMSO) solution to cells cultured in a specific medium such as Dulbecco’s modified Eagle’s medium (DMEM). DMEM consists of numerous organic compounds which may act as ligands for organometallics. Therefore, it is important to know how the compounds behave in such conditions. The two most prominent components of DMEM which may coordinate to half-sandwich complexes are L-cysteine and L-histidine. Both of those amino acids are present in DMEM at 0.2 mM concentration, so we studied how the complexes interact with them using UV–vis spectroscopy and HPLC-MS analysis. The DMSO solutions of complexes were added to the aqueous solution of L-cysteine or L-histidine to achieve a complex concentration of 20 μM while keeping the DMSO concentration at 0.5 vol %. […] HPLC-MS analysis confirmed the formation of an additional peak at τ = 0.95 min with m/z 714 assigned to [M-Cl-PF6 + HCOOH]^+; additionally, the intensity of peaks corresponding to 3c is lower (Figure S26). […] The intensity of absorbance peaks at λ = 287 and λ = 372 nm in the presence of cysteine is decreasing, while the intensity of peaks at λ = 304 and λ = 318 nm is almost intact.
# (§4) The stability of 3a–d was studied in the presence of L-cysteine or L-histidine. 3a–d were dissolved in DMSO and added to 0.2 mM aqueous solution of L-cysteine or L-histidine to achieve the complex concentration of 20 μM while keeping the DMSO concentration at 0.5 vol %. UV–vis spectra were recorded over 2 h with 10 min intervals.
# [3] = system: A549; test: Neutral red uptake antiproliferative assay, A549; details: for IC50: read-out: IC50 A549, exposure time 72 h, n = 3, 95% CI given; for activity factor IC50(1)/IC50(3a–4d), A549: vs corresponding amine (R)-1 or (S)-1, 72 h
# Excerpt: as §1
# (§5) Cell lines used in this study were purchased from the American Type Culture Collection via LGC Standards. Human normal lung fibroblasts (MRC-5), alveolar basal epithelial cell adenocarcinoma (A549), colorectal adenocarcinoma (Colo205), hepatocellular carcinoma (HepG2), breast adenocarcinoma (MCF7), and colorectal adenocarcinoma (SW620) and its MDR variants[55] were cultured in standard conditions (37 °C, 5% CO2, 100% relative humidity) in high glucose DMEM medium supplemented with GlutaMax, HEPES (ThermoFisher Scientific) and 10% fetal bovine serum (EURx, Poland). All cell lines were tested for Mycoplasma contamination using a MycoProbe mycoplasma detection kit (R&D System).
# as §2
# [4] = system: SW620E; test: Neutral red uptake antiproliferative assay, MDR line SW620E; format: cell-based, human; details: for IC50: exposure time 72 h, n = 3, ABCC1- and ABCB1-overexpressing MDR line; for activity factor IC50(1)/IC50(3a–4d), SW620E: vs corresponding amine (R)-1 or (S)-1, 72 h
# Excerpt: (§6) Next, we evaluated the cytotoxicity of the synthesized complexes toward the panel of six multidrug-resistant (MDR) cell lines derived from SW620 and characterized by the overexpression of various ABC proteins, namely, ABCG2 (SW620C and SW620Mito), ABCC1 (SW620M and SW620E), and ABCB1 (SW620D, SW620E, and SW620V) (Table 3, Figures S29 and S32). […] The activity of the complexes derived from the ligand (S)-2 is also considerably higher than that of the compounds containing the ligand (R)-2. The cytotoxicity of both rhodium 4c and iridium 4d complexes is higher than that of amine (S)-1. In the case of 4c, the increase in cytotoxicity is low, with the highest value of 3.7-fold for the SW620Mito line. […] Compound 4d also exerts a 2.1- and 2.6-fold higher cytotoxicity than […] against the SW620C and SW620D lines.
# (§7) For this purpose, neutral red uptake assay was performed. […] The results were presented as a percentage of control.
# [5] = Stability study in the presence of L-histidine (UV-vis, HPLC-MS); format: physicochemical; details: 20 μM complex, 0.2 mM L-histidine in water, 0.5 vol % DMSO, followed over 2 h
# Excerpt: as §3, §4
# [6] = system: SW620D; test: Neutral red uptake antiproliferative assay, MDR line SW620D; format: cell-based, human; details: for IC50: exposure time 72 h, n = 3, ABCB1-overexpressing MDR line; for activity factor IC50(1)/IC50(3a–4d), SW620D: vs corresponding amine (R)-1 or (S)-1, 72 h
# Excerpt: as §6, §7
# [7] = system: SW620; test: Neutral red uptake antiproliferative assay, SW620; format: cell-based, human; details: for IC50: exposure time 72 h, n = 3, 95% CI given; for activity factor IC50(1)/IC50(3a–4d), SW620: vs corresponding amine (R)-1 or (S)-1, 72 h
# Excerpt: as §1, §5, §2
IC50 [1] [nM],"activity factor IC50(1)/IC50(3a–4d), HCT116 [1]",IC50 [3] [nM],"activity factor IC50(1)/IC50(3a–4d), A549 [3]",IC50 [4] [nM],"activity factor IC50(1)/IC50(3a–4d), SW620E [4]",IC50 [6] [µM],"activity factor IC50(1)/IC50(3a–4d), SW620D [6]",IC50 [7] [nM],"activity factor IC50(1)/IC50(3a–4d), SW620 [7]",SMILES,reaction with L-cysteine (stability) [2],reaction with L-histidine (stability) [5],"increased cytotoxicity vs corresponding amine 1, A549 [3] [fold]","increased cytotoxicity vs corresponding amine 1, A549 ([3]; rounded value) [fold]","higher cytotoxicity than corresponding amine 1, SW620D ([6]; rounded value) [fold]"
2880,(0.120),2450,(0.902),5520,(0.151),7.23,(0.155),1220,(0.079),"CC(C)[C@@H](N=Cc1ccccn1)c1nc2cc(Cl)ccc2c(=O)n1Cc1ccccc1.Cc1ccc(C(C)C)cc1.F[P-](F)(F)(F)(F)F.[Cl-].[Ru+2] [Compound 3a, [(cym)Ru((R)-2)Cl]PF6]",neither ruthenium 3a nor the osmium complex 3b reacts with those amino acids within 2 h,neither ruthenium 3a nor the osmium complex 3b reacts with those amino acids within 2 h,,,
424,(0.816),1040,(2.12),3520,(0.237),3.92,(0.286),556,(0.173),"CC(C)[C@@H](N=Cc1ccccn1)c1nc2cc(Cl)ccc2c(=O)n1Cc1ccccc1.Cc1ccc(C(C)C)cc1.F[P-](F)(F)(F)(F)F.[Cl-].[Os+2] [Compound 3b, [(cym)Os((R)-2)Cl]PF6]",neither ruthenium 3a nor the osmium complex 3b reacts with those amino acids within 2 h,neither ruthenium 3a nor the osmium complex 3b reacts with those amino acids within 2 h,2,,
173,(2.00),1160,(1.90),880,(0.949),4.18,(0.268),152,(0.632),"CC(C)[C@@H](N=Cc1ccccn1)c1nc2cc(Cl)ccc2c(=O)n1Cc1ccccc1.Cc1c(C)c(C)[c-](C)c1C.F[P-](F)(F)(F)(F)F.[Cl-].[Rh+3] [Compound 3c, [(Cp*)Rh((R)-2)Cl]PF6]",slowly reacts with L-cysteine,A similar effect is observed in the case of L-histidine,,2,
476,(0.727),1130,(1.96),1020,(0.819),0.644,(1.74),198,(0.485),"CC(C)[C@@H](N=Cc1ccccn1)c1nc2cc(Cl)ccc2c(=O)n1Cc1ccccc1.Cc1c(C)c(C)[c-](C)c1C.F[P-](F)(F)(F)(F)F.[Cl-].[Ir+3] [Compound 3d, [(Cp*)Ir((R)-2)Cl]PF6]",reacts with both L-cysteine and L-histidine (Figure 6) in 40 min,reacts with both L-cysteine and L-histidine (Figure 6) in 40 min,,2,1.7
